Tested on: not listed separately
Test: Human microsome stability assay
Assay type: in vitro ADME
Details: 1 μM test compound, 0.5 mg/mL liver microsomal protein, 37° C.
Experimental: Human microsome stability assay
The human microsomal stability assay is used for early assessment of metabolic stability of a test compound in human liver microsomes.
Human liver microsomes (Cat.NO.: 452117, Corning, USA;Cat.NO.:H2610, Xenotech, USA) were preincubated with test compound for 10 minutes at 37° C. in 100 mM potassium phosphate buffer, pH 7.4. The reactions were initiated by adding NADPH regenerating system. The final incubation mixtures contained 1 μM test compound, 0.5 mg/mL liver microsomal protein, 1 mM MgCl2, 1 mM NADP, 1 unit/mL isocitric dehydrogenase and 6 mM isocitric acid in 100 mM potassium phosphate buffer, pH 7.4. After incubation times of 0, 3, 6, 9, 15 and 30 minutes at 37° C., 300 μL of cold acetonitrile (including internal standard) was added to 100 μL incubation mixture to terminate the reaction. Following precipitation and centrifugation, the amount of compound remaining in the samples were determined by LC-MS/MS. Controls of no NADPH regenerating system at zero and 30 minutes were also prepared and analyzed.

| Clearance of Human microsome [mL/min/kg] | Compound |
| --- | --- |
| 6.25 | Cc1cc(N2CC[C@@H](NC[C@H]3CN(c4ccc(C#N)c5ncccc45)C[C@@H](C)O3)C2)cc(CO)n1 [Example 28] |
| 7.14 | Cc1cc(N2CC(NC[C@H]3CN(c4ccc(C#N)c5ncccc45)C[C@@H](C)O3)C2)cc(CO)n1 [Example 30] |
| 6.15 | C[C@@H]1CN(c2ccc(C#N)c3ncccc23)C[C@H](CNC2CCN(c3ccnc(N)c3)CC2)O1 [Example 20, 5-[(2S,6R)-2-[[[1-(2-amino-4-pyridyl)-4-piperidyl]amino]methyl]-6-methyl-morpholin-4-yl]quinoline-8-carbonitrile] |

Target: T1, human TLR8 (Homo sapiens, UniProt Q9NR97)
T1 construct: host or cells: HEK293-Blue-hTLR-8 (HEK293)
T1 sequence (Q9NR97 27-1041): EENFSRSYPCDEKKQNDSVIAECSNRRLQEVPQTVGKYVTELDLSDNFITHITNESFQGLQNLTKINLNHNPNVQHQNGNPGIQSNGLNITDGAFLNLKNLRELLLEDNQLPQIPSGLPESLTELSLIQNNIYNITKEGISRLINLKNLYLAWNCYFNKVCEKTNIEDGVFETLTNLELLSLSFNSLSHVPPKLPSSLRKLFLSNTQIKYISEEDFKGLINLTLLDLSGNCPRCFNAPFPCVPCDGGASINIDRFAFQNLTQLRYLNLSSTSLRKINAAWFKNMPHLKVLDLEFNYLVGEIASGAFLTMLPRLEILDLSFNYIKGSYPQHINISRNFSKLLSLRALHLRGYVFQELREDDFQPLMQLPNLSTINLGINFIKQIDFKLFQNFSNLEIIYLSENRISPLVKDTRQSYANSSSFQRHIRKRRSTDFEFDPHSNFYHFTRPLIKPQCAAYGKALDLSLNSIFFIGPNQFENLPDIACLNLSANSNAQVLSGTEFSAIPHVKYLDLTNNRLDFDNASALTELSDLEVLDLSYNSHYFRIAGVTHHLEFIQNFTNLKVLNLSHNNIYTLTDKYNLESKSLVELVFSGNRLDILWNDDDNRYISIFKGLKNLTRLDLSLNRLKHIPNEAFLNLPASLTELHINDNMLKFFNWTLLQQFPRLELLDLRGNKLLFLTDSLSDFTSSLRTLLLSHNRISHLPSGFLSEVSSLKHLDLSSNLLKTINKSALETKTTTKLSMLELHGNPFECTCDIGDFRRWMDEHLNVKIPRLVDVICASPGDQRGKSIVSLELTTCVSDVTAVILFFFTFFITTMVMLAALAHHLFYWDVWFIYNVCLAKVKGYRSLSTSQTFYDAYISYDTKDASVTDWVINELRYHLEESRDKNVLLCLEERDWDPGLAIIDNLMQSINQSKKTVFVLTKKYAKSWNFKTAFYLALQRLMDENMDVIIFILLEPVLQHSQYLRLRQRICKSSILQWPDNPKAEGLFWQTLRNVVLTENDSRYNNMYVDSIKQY
Test: HEK293-Blue-hTLR-8 cells assay
Assay type: cell-based
Details: HEK293-Blue-hTLR8 cells, R848 stimulation, 20 hrs, SEAP reporter; read-out: HEK/hTLR8 IC50
Experimental: The following tests were carried out in order to determine the activity of the compounds of formula (I) and (Ia) in HEK293-Blue-hTLR-7/8/9 cells assay.
HEK293-Blue-hTLR-8 cells assay:
A stable HEK293-Blue-hTLR-8 cell line was purchased from InvivoGen (Cat. #: hkb-htlr8, San Diego, Calif., USA). These cells were originally designed for studying the stimulation of human TLR8 by monitoring the activation of NE-κB. A SEAP (secreted embryonic alkaline phosphatase) reporter gene was placed under the control of the IFN-β minimal promoter fused to five NE-κB and AP-1-binding sites. The SEAP was induced by activating NE-κB and AP-1 via stimulating HEK-Blue hTLR8 cells with TLR8 ligands. Therefore the reporter expression was declined by TLR8 antagonist under the stimulation of a ligand, such as R848, for incubation of 20 hrs. The cell culture supernatant SEAP reporter activity was determined using QUANTI-Blue™ kit (Cat. #: rep-qbl, Invivogen, San Diego, Ca, USA) at a wavelength of 640 nm, a detection medium that turns purple or blue in the presence of alkaline phosphatase.
HEK293-Blue-hTLR8 cells were incubated at a density of 250,000-450,000 cells/mL in a volume of 170 μL in a 96-well plate in Dulbecco's Modified Eagle's medium (DMEM) containing 4.5 g/L glucose, 50 U/mL penicillin, […], […], 2 mM L-glutamine, 10% (v/v) heat-inactivated fetal bovine serum with addition of 20 μL test compound in a serial dilution in the presence of final DMSO at 1% and 10 μL of 60 uM R848 in above DMEM, perform incubation under 37° C. in a CO2 incubator for 20 hrs. Then 20 μL of the supernatant from each well was incubated with 180 μL Quanti-blue substrate solution at 37° C. for 2 hrs and the absorbance was read at 620˜655 nm using a spectrophotometer. The signalling pathway that TLR8 activation leads to downstream NE-κB activation has been widely accepted, and therefore similar reporter assay was modified for evaluating TLR8 antagonist.

| Compound | IC50 [µM] |
| --- | --- |
| Cc1cc(N2CCN(C[C@H]3CN(c4ccc(C#N)c5ncccc45)C[C@@H](C)O3)[C@H](C)C2)cc(CO)n1 [Example 4B] | 0.005 |
| Cc1cc(N2CC[C@@H](NC[C@H]3CN(c4ccc(C#N)c5ncccc45)C[C@@H](C)O3)C2)cc(CO)n1 [Example 28] | 0.032 |
| Cc1cc(N2CC(NC[C@H]3CN(c4ccc(C#N)c5ncccc45)C[C@@H](C)O3)CC(F)(F)C2)cc(CO)n1 (stereo partly drawn) [Example 36] | 0.012 |
| CNc1cc(N2CCN(C[C@H]3CN(c4ccc(C#N)c5ncccc45)C[C@@H](C)O3)CC2)cc(C)n1 [Example 42, 5-[(2R,6S)-2-methyl-6-[[4-[2-methyl-6-(methylamino)-4-pyridyl]piperazin-1-yl]methyl]morpholin-4-yl]quinoline-8-carbonitrile] | < 0.003 |
| Cc1cc(N2CCOC3(CN(C[C@H]4CN(c5ccc(C#N)c6ncccc56)C[C@@H](C)O4)C3)C2)ccn1 [Example 16] | < 0.003 |
| C[C@@H]1CN(c2ccc(C#N)c3ncccc23)C[C@H](CN2CCN(c3cc(N)nc(CO)c3)CC2)O1 [Example 45, 5-[(2S,6R)-2-[[4-[2-amino-6-(hydroxymethyl)-4-pyridyl]piperazin-1-yl]methyl]-6-methyl-morpholin-4-yl]quinoline-8-carbonitrile] | 0.014 |
| Cc1cc(N2CCC[C@H](NC[C@H]3CN(c4ccc(C#N)c5ncccc45)C[C@@H](C)O3)C2)cc(CO)n1 [Example 25] | 0.014 |
| Cc1cc(C2CCN(C[C@H]3CN(c4ccc(C#N)c5ncccc45)C[C@@H](C)O3)CC2)cc(N)n1 [Example 43, 5-[(2S,6R)-2-[[4-(2-amino-6-methyl-4-pyridyl)-1-piperidyl]methyl]-6-methyl-morpholin-4-yl]quinoline-8-carbonitrile] | 0.018 |
| Cc1cc(N2CCC[C@@H](N(C)C[C@H]3CN(c4ccc(C#N)c5ncccc45)C[C@@H](C)O3)C2)cc(CO)n1 [Example 35] | 0.009 |
| Cc1cc(N2CCC(NC[C@H]3CN(c4ccc(C#N)c5ncccc45)C[C@@H](C)O3)CC2)cc(CO)n1 [Example 23] | 0.041 |
| C[C@@H]1CN(c2ccc(C#N)c3ncccc23)C[C@H](CN[C@H]2CCCN(c3ccnc(N)c3)C2)O1 [Example 22] | 0.038 |
| C[C@@H]1CN(c2ccc(C#N)c3ncccc23)C[C@H](CN2CC3(C2)CN(c2ccnc(CO)c2)CCO3)O1 [Example 51] | 0.003 |
| C[C@@H]1CN(c2ccc(C#N)c3ncccc23)C[C@H](CN2CCN(c3ccnc(N)c3)CC2)O1 [Example 19, 5-[(2S,6R)-2-[[4-(2-amino-4-pyridyl)piperazin-1-yl]methyl]-6-methyl-morpholin-4-yl]quinoline-8-carbonitrile] | 0.003 |
| Cc1cc(N2CCC23CN(C[C@H]2CN(c4ccc(C#N)c5ncccc45)C[C@@H](C)O2)C3)ccn1 [Example 15] | 0.006 |
| Cc1cc(N(C)C2CN(C[C@H]3CN(c4ccc(C#N)c5ncccc45)C[C@@H](C)O3)C2)cc(C)n1 [Example 11] | 0.011 |
| Cc1cc(N2CCC[C@H](N(C)C[C@H]3CN(c4ccc(C#N)c5ncccc45)C[C@@H](C)O3)C2)cc(CO)n1 [Example 38] | 0.004 |
| Cc1cc(N2C[C@H]3CN(C[C@H]4CN(c5ccc(C#N)c6ncccc56)C[C@@H](C)O4)C[C@H]3C2)cc(CO)n1 [Example 10] | 0.022 |

More lines, now with the values ahead:

| IC50 [µM] | Compound |
| --- | --- |
| 0.014 | Cc1cc(N2CC(NC[C@H]3CN(c4ccc(C#N)c5ncccc45)C[C@@H](C)O3)C2)cc(CO)n1 [Example 30] |
| 0.07 | C[C@@H]1CN(c2ccc(C#N)c3ncccc23)C[C@H](CNC2CCN(c3ccnc(N)c3)CC2)O1 [Example 20, 5-[(2S,6R)-2-[[[1-(2-amino-4-pyridyl)-4-piperidyl]amino]methyl]-6-methyl-morpholin-4-yl]quinoline-8-carbonitrile] |
| < 0.003 | Cc1cc(N2CCOC3CN(CC4CN(c5ccc(C#N)c6ncccc56)CC(C)O4)CC32)cc(C)n1 (single isomer, unassigned) [Example 17A] |
| 0.012 | Cc1cc(N2CCC23CN(C[C@H]2CN(c4ccc(C#N)c5ncccc45)C[C@@H](C)O2)C3)cc(CO)n1 [Example 12] |
| 0.025 | Cc1cc(N2CC[C@H](NC[C@H]3CN(c4ccc(C#N)c5ncccc45)C[C@@H](C)O3)C2)cc(CO)n1 [Example 29] |
| 0.007 | Cc1cc(N2CC[C@H](F)[C@H](NC[C@H]3CN(c4ccc(C#N)c5ncccc45)C[C@@H](C)O3)C2)cc(CO)n1 [Example 33] |
| < 0.003 | C[C@@H]1CN(c2ccc(C#N)c3ncccc23)C[C@H](CN2CC3(C2)CN(c2ccnc(C4CC4)c2)CCO3)O1 [Example 3, 5-[(2S,6R)-2-[[8-(2-cyclopropyl-4-pyridyl)-5-oxa-2,8-diazaspiro[3.5]nonan-2-yl]methyl]-6-methyl-morpholin-4-yl]quinoline-8-carbonitrile] |
| 0.015 | C[C@@H]1CN(c2ccc(C#N)c3ncccc23)C[C@H](CN[C@@H]2CCCN(c3ccnc(N)c3)C2)O1 [Example 21, 5-[(2S,6R)-2-[[[(3R)-1-(2-amino-4-pyridyl)-3-piperidyl]amino]methyl]-6-methyl-morpholin-4-yl]quinoline-8-carbonitrile] |
| < 0.003 | Cc1cc(N2CCOC3(CN(C[C@H]4CN(c5ccc(C#N)c6ncccc56)C[C@@H](C)O4)C3)C2)cc(C)n1 [Example 14] |
| 0.01 | Cc1cc(N2CCC[C@@H](NC[C@H]3CN(c4ccc(C#N)c5ncccc45)C[C@@H](C)O3)C2)cc(CO)n1 [Example 24] |
| 0.007 | Cc1cc(N2CCC23CN(C[C@H]2CN(c4ccc(C#N)c5ncccc45)C[C@@H](C)O2)C3)cc(C)n1 [Example 8] |
| 0.003 | Cc1cc(N2CCOC3CN(CC4CN(c5ccc(C#N)c6ncccc56)CC(C)O4)CC32)cc(C)n1 (single isomer, unassigned) [Example 17B] |
| 0.004 | Cc1cc(N2CC[C@@H](F)[C@H](NC[C@H]3CN(c4ccc(C#N)c5ncccc45)C[C@@H](C)O3)C2)cc(CO)n1 [Example 34] |

From patent US20210269451A1, “PYRIDINYL HETEROCYCLYL COMPOUNDS FOR THE TREATMENT OF AUTOIMMUNE DISEASE” (Hoffmann-La Roche Inc., priority 2018, published 2021)
